{"source": "ChEMBL document CHEMBL1147502", "about": "“Isopropyl amide derivatives of potent and selective muscarinic M2 receptor antagonists” (Bioorg Med Chem Lett, 2004)", "data": [{"target": "T1, Muscarinic acetylcholine receptor M2 (Homo sapiens, UniProt P08172)", "T1 sequence (P08172 whole entry)": "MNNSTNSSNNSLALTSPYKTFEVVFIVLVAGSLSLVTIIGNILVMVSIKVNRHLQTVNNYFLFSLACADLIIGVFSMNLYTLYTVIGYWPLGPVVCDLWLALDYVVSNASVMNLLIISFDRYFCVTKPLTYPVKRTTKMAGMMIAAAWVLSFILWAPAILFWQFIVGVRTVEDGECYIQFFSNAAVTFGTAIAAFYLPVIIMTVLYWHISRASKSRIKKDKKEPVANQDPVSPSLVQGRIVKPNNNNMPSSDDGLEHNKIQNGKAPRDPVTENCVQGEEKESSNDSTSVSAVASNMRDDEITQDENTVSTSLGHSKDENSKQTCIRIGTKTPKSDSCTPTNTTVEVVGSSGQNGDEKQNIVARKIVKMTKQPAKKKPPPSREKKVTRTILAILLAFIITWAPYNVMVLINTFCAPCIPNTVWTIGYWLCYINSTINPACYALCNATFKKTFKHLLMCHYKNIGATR", "assay": "Binding affinity against cloned human muscarinic acetylcholine receptor M2.", "units": {"Ki": "nM"}, "values": [{"smiles": "Cc1c(N)cccc1C(=O)N1CCC(N2CCC(Cc3ccc(C(=O)NC(C)C)cc3)CC2)CC1", "Ki": 1.6}, {"smiles": "Cc1cccc(C(=O)N2CCC(N3CCC(Cc4ccc(C(=O)NC(C)C)cc4)CC3)CC2)c1N", "Ki": 9}, {"smiles": "CC(C)NC(=O)c1ccc(CC2CCN(C3CCN(C(=O)c4ccccc4Cl)CC3)CC2)cc1", "Ki": 12}, {"smiles": "O=C(Nc1ccccc1)c1ccc(CC2CCN(C3CCN(C(=O)c4ccc(F)c5ccccc45)CC3)CC2)cc1", "Ki": 104}, {"smiles": "Cc1ccccc1C(=O)N1CCC(N2CCC(Cc3ccc(C(=O)NC(C)C)cc3)CC2)CC1", "Ki": 7}, {"smiles": "CC(C)NC(=O)c1ccc(CC2CCN(C3CCN(C(=O)c4ccccc4N)CC3)CC2)cc1", "Ki": 78}, {"smiles": "CC(C)NC(=O)c1ccc(CC2CCN(C3CCN(C(=O)c4ccc(F)c5c(F)cccc45)CC3)CC2)cc1", "Ki": 9}, {"smiles": "CC(C)NC(=O)c1ccc(CC2CCN(C3CCN(C(=O)c4cccc5[nH]ccc45)CC3)CC2)cc1", "Ki": 1.6}, {"smiles": "Cc1cccc(C(=O)N2CCC(N3CCC(C4(c5ccc(C(=O)NC(C)C)cc5)OCCO4)CC3)CC2)c1N", "Ki": 2.7}, {"smiles": "CC(C)(C)NC(=O)c1ccc(CC2CCN(C3CCN(C(=O)c4ccc(F)c5ccccc45)CC3)CC2)cc1", "Ki": 18}, {"smiles": "CC(C)NC(=O)c1ccc(CC2CCN(C3CCN(C(=O)c4ccc(F)c5ccccc45)CC3)CC2)cc1", "Ki": 2.1}, {"smiles": "CC(C)NC(=O)c1ccc(CC2CCN(C3CCN(C(=O)c4cccc5nc[nH]c45)CC3)CC2)cc1", "Ki": 27}, {"smiles": "CC(C)NC(=O)c1ccc(CC2CCN(C3CCN(C(=O)c4cccc5c(F)cc(F)cc45)CC3)CC2)cc1", "Ki": 5}, {"smiles": "Cc1ccccc1C(=O)N1CCC(N2CCC(C3(c4ccc(C(=O)NC(C)C)cc4)OCCO3)CC2)CC1", "Ki": 9}, {"smiles": "Cc1c(N)cccc1C(=O)N1CCC(N2CCC(C3(c4ccc(C(=O)NC(C)C)cc4)OCCO3)CC2)CC1", "Ki": 1.9}, {"smiles": "Cc1ccccc1C(=O)N1CCC(N2CCC(Cc3ccc(C(=O)Nc4ccccc4)cc3)CC2)CC1", "Ki": 122}, {"smiles": "CC(C)NC(=O)c1ccc(CC2CCN(C3CCN(C(=O)c4ccnc5ccccc45)CC3)CC2)cc1", "Ki": 40}, {"smiles": "CC(C)NC(=O)c1ccc(CC2CCN(C3CCN(C(=O)c4c[nH]c5ccccc45)CC3)CC2)cc1", "Ki": 6}, {"smiles": "CC(C)S(=O)(=O)c1ccc(CC2CCN(C3CCN(C(=O)c4ccc(F)c5ccccc45)CC3)CC2)cc1", "Ki": 17}, {"smiles": "Cc1ccccc1C(=O)N1CCC(N2CCC(Cc3ccc(C(=O)NC(C)(C)C)cc3)CC2)CC1", "Ki": 106}, {"smiles": "O=C(NC1CCCCC1)c1ccc(CC2CCN(C3CCN(C(=O)c4ccc(F)c5ccccc45)CC3)CC2)cc1", "Ki": 1300}, {"smiles": "CC(C)NC(=O)c1ccc(C2(C3CCN(C4CCN(C(=O)c5ccc(F)c6ccccc56)CC4)CC3)OCCO2)cc1", "Ki": 2.4}, {"smiles": "CC(C)NC(=O)c1ccc(C2(C3CCN(C4CCN(C(=O)c5ccccc5Cl)CC4)CC3)OCCO2)cc1", "Ki": 35}, {"smiles": "Cc1ccccc1C(=O)N1CCC(N2CCC(Cc3ccc(C(=O)NC4CCCCC4)cc3)CC2)CC1", "Ki": 15}, {"smiles": "CC(C)NC(=O)c1ccc(C2(C3CCN(C4CCN(C(=O)c5cccc6[nH]ccc56)CC4)CC3)OCCO2)cc1", "Ki": 1.1}, {"smiles": "CC(C)NC(=O)c1ccc(CC2CCN(C3CCN(C(=O)c4ccc5[nH]ccc5c4)CC3)CC2)cc1", "Ki": 5}]}]}
